In US12031151B2, “Methods of improving protein titer in cell culture” (Regeneron Pharmaceuticals, Inc., priority 2021, dated 2024):

System: protein titer of dupilumab production cell culture
Assay: LC-MS analysis of HEPES related impurities and titer correlation evaluation across cell culture production runs
Format: cell-based
Settings: for Pearson Correlation Coefficient, 5 HEPES salt lots / Pearson Correlation Coefficient, 7 CDM1B lots (Geel) / Pearson Correlation Coefficient, 20 CDM1B lots (Rens): correlation of impurity abundance with final titer; for Pearson Correlation Coefficient, 7 CDM1B lots (Geel): 7 CDM1B media lots; for Pearson Correlation Coefficient, 20 CDM1B lots (Rens): 20 CDM1B media lots; for correlation of impurity abundance with titer: dupilumab production runs, Site 1 (20 runs) and Site 2 (7 runs)
Protocol: ANOVA analysis of the lot genealogy of 53 different components of a chemically defined media was performed between lots utilized in “high titer” performing cell culture runs and “low titer” performing cell culture runs. HEPES acid and salt were identified as “high risk” components, showing the strongest correlation with final titer (the correlation was stronger than the correlation between the titer and media as whole). HEPES also was identified as a “high risk component” in an independent risk-based analysis that considered the weight fractions of components in the media formulation, components' COA purity and their manufacturing methods.
Following identification of HEPES as a “high risk” component with strong correlation to final titer, an analysis of the chemical composition of HEPES buffer lots was performed, including LC-MS and titer correlations evaluations.
Large scale production runs were performed at multiple sites to produce dupilumab. […] Based on the findings, and in accordance with the inventions, improved protein titer may be obtained by using media having reduced HEPES related impurities, in accordance with the inventions.
FIG. 1 illustrates the relation between relative amounts of HEPES+[O2]−[H2] and protein titer. […] Summary of fit data is shown below each graph of FIGS. 2A and 2B.
FIG. 3 illustrates the relation between relative amounts of HEPES−[CH4] and protein titer. […] Summary of fit data is shown below each graph of FIGS. 4A and 4B.

SMILES | Pearson Correlation Coefficient, 5 HEPES salt lots | Pearson Correlation Coefficient, 7 CDM1B lots (Geel) | Pearson Correlation Coefficient, 20 CDM1B lots (Rens) | correlation of impurity abundance with titer
O=S(=O)(O)CC(O)O [2,2-Dihydroxyethane-sulfonic acid] | −0.85 |  |  | 
CC(=O)NCS(=O)(=O)O [Acetamidomethane-sulfonic acid] | −0.81 | −0.34 | −0.78 | 
O=CN(CCO)CCN(C=O)CCS(=O)(=O)O [HEPES+[O2]−[H2]] | −0.82 | −0.68 | −0.77 | negative correlation with titer
O=CN1CCN(CCS(=O)(=O)O)CC1 [HEPES−[CH4]] | −0.85 | −0.83 | −0.68 | negative correlation with titer
C=CS(=O)(=O)O [Vinylsulfonic acid] | −0.60 | 0.41 | 0.16 | 
